{"source": "paper PMC4850295", "about": "“Using a Genetically Encoded Sensor to Identify Inhibitors of Toxoplasma gondii Ca^2+ Signaling” (The Journal of Biological Chemistry, 2016)"}
{"test_system": "T1, GCaMP5-expressing T. gondii", "T1 construct": "whole extracellular parasites expressing GCaMP5 Ca2+ sensor", "parameters": "species or system GCaMP5-expressing Toxoplasma gondii, extracellular; GCaMP5 fluorescence (cytosolic Ca2+) after 100 uM zaprinast in compound-pretreated extracellular parasites, background-subtracted, relative to zaprinast alone", "settings": "100 uM zaprinast stimulation; 10 min pretreatment; mean of two replicates; 0.23 h", "in_short": "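Read-out is GCaMP5 calcium fluorescence (ex 485/em 525 nm) taken 4 min after 100 μM zaprinast at 37 °C, following 10 min compound pretreatment at 10 μM in duplicate biological replicates. Values are basal-subtracted fold change versus zaprinast-only controls; parasites held extracellular in Ringer's solution.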"}
{"smiles": "CNc1nccc(-c2ccc3c(N)n[nH]c3c2)n1", "note": "[GSK2206003A]", "fold change in fluorescence relative to zaprinast alone": 1.243}
{"smiles": "COc1cc(C)c(NC(=O)CN(C)C)cc1Nc1nc(Nc2cccc(F)c2C(N)=O)c2cc[nH]c2n1", "note": "[GSK2213727A]", "fold change in fluorescence relative to zaprinast alone": 1.59}
{"smiles": "CN(C)c1cc(-c2ccc3c(N)n[nH]c3c2)nc(N)n1", "note": "[GSK2219329A]", "fold change in fluorescence relative to zaprinast alone": 0.9361}
{"smiles": "CNC(=O)c1ncccc1Nc1nc(Nc2cc3c(cc2OC)CCCN3C(=O)CN(C)C)nc2[nH]ccc12", "note": "[GSK2220400A]", "fold change in fluorescence relative to zaprinast alone": 1.127}
{"smiles": "CC(C)Nc1cc(-c2ccc3c(N)n[nH]c3c2)nc(N)n1", "note": "[GSK2221681A]", "fold change in fluorescence relative to zaprinast alone": 1.173}
{"smiles": "Nc1nc(Nc2ccccc2)cc(-c2ccc3c(N)n[nH]c3c2)n1", "note": "[GSK2225749A]", "fold change in fluorescence relative to zaprinast alone": 1.117}
{"smiles": "Nc1nc(-c2ccc3c(N)n[nH]c3c2)cc(N2CCCC2)n1", "note": "[GSK2227430A]", "fold change in fluorescence relative to zaprinast alone": 1.158}
{"smiles": "Nc1nc(-c2ccc3c(N)n[nH]c3c2)cc(N2CCCCC2)n1", "note": "[GSK2228768A]", "fold change in fluorescence relative to zaprinast alone": 0.9677}
{"smiles": "O=c1[nH]cc(-c2ccc(N3CCOCC3)cc2)c2sc(-c3cn[nH]c3)cc12", "note": "[GSK2276055A]", "fold change in fluorescence relative to zaprinast alone": 0.8496}
{"smiles": "C[C@@H]1CC[C@@H](C(=O)Nc2ccccc2)CN1c1cc(-c2ccc3c(N)n[nH]c3c2)nc(N)n1", "note": "[GSK2286062A]", "fold change in fluorescence relative to zaprinast alone": 0.9223}
{"smiles": "Nc1nc(-c2ccc3c(N)n[nH]c3c2)cc(N2CCCC(NC(=O)c3ccccc3)C2)n1", "note": "(stereo not drawn) [GSK2286775B]", "fold change in fluorescence relative to zaprinast alone": 1.202}
{"smiles": "C[C@@H]1CC[C@H](C(=O)NC2CCCCC2)CN1c1cc(-c2ccc3c(N)n[nH]c3c2)nc(N)n1", "note": "[GSK2291363A]", "fold change in fluorescence relative to zaprinast alone": 1.384}
{"smiles": "O=c1cc(N2CCOCC2)nc2n(Cc3cccc(C(F)(F)F)c3)ccn12", "note": "[GSK2297543A]", "fold change in fluorescence relative to zaprinast alone": 0.8956}
{"smiles": "O=c1cc(N2CCOCC2)nc2n(Cc3cccc(Cl)c3Cl)c3ccccc3n12", "note": "[GSK2299009A]", "fold change in fluorescence relative to zaprinast alone": 1.093}
{"smiles": "Cc1c(Cn2c3ccccc3n3c(=O)cc(N4CCOCC4)nc23)cccc1C(F)(F)F", "note": "[GSK2306394A]", "fold change in fluorescence relative to zaprinast alone": 0.7248}
{"smiles": "Cc1nn2c(=O)cc(N3CCOC(C)C3)nc2n1Cc1cccc(Cl)c1Cl", "note": "(stereo not drawn) [GSK2373693A]", "fold change in fluorescence relative to zaprinast alone": 0.7316}
{"smiles": "CNc1nc(-c2ccc3c(N)n[nH]c3c2)cc(N2C[C@@H](C(=O)NC3CCCCC3)OC[C@H]2C)n1", "note": "[GSK2375584A]", "fold change in fluorescence relative to zaprinast alone": 1.379}
{"smiles": "Nc1nccc2scc(-c3ccc4c(c3)CCN4C(=O)Cc3ccccc3)c12", "note": "[GSK2576924A]", "fold change in fluorescence relative to zaprinast alone": 0.9278}
{"smiles": "Nc1nccc2scc(-c3ccc4c(c3)CCN4C(=O)Cc3cc(F)ccc3F)c12", "note": "[GSK2587663A]", "fold change in fluorescence relative to zaprinast alone": 0.7245}
{"smiles": "Nc1ncc(-c2ccncc2)c2scc(-c3ccc4c(c3)CCN4C(=O)Cc3ccccc3)c12", "note": "[GSK2592465A]", "fold change in fluorescence relative to zaprinast alone": 1.243}
{"smiles": "Nc1ncc(-c2cn[nH]c2)c2scc(-c3ccc4c(c3)CCN4C(=O)Cc3ccccc3)c12", "note": "[GSK2593067A]", "fold change in fluorescence relative to zaprinast alone": 1.414}
{"smiles": "Cn1cc(-c2cnc(N)c3c(-c4ccc5c(c4)CCN5C(=O)Cc4ccccc4)csc23)cn1", "note": "[GSK2593074A]", "fold change in fluorescence relative to zaprinast alone": 1.463}
{"smiles": "Cc1ccccc1CC(=O)N1CCc2cc(-c3cn(C)c4ncnc(N)c34)ccc21", "note": "[GSK2603346A]", "fold change in fluorescence relative to zaprinast alone": 1.278}
{"smiles": "Cn1cc(-c2ccc3c(c2)CCN3C(=O)Cc2cccc(F)c2)c2c(N)ncnc21", "note": "[GSK2603358A]", "fold change in fluorescence relative to zaprinast alone": 1.56}
{"smiles": "Cn1cc(-c2ccc3c(c2)CCN3C(=O)Cc2cccc(Cl)c2)c2c(N)ncnc21", "note": "[GSK2606590A]", "fold change in fluorescence relative to zaprinast alone": 1.488}
{"smiles": "Cn1cc(-c2ccc3c(c2)CCN3C(=O)Cc2ccccc2Cl)c2c(N)ncnc21", "note": "[GSK2608885A]", "fold change in fluorescence relative to zaprinast alone": 1.437}
{"smiles": "COc1cccc(CC(=O)N2CCc3cc(-c4cn(C)c5ncnc(N)c45)ccc32)c1", "note": "[GSK2608899A]", "fold change in fluorescence relative to zaprinast alone": 0.9364}
{"smiles": "Cc1ccc(CC(=O)N2CCc3cc(-c4cn(C)c5ncnc(N)c45)ccc32)cc1", "note": "[GSK2634758A]", "fold change in fluorescence relative to zaprinast alone": 1.068}
{"smiles": "Nc1ncnc2occ(-c3ccc4c(c3)CCN4C(=O)Cc3cc(F)ccc3F)c12", "note": "[GSK2645446A]", "fold change in fluorescence relative to zaprinast alone": 0.8883}
{"smiles": "c1ccc(Cn2cnc3cc(Nc4ncnc5ccccc45)ccc32)cc1", "note": "[GW272142A]", "fold change in fluorescence relative to zaprinast alone": 1.177}
{"smiles": "NS(=O)(=O)c1cccc(N/C=C2\\C(=O)Nc3ccccc32)c1", "note": "[GW275616X]", "fold change in fluorescence relative to zaprinast alone": 0.9797}
{"smiles": "Cc1ccc2c(c1)/C(=N/Nc1ccc(S(N)(=O)=O)cc1)C(=O)N2", "note": "[GW275944X]", "fold change in fluorescence relative to zaprinast alone": 1.616}
{"smiles": "NS(=O)(=O)c1ccc(N/N=C2\\C(=O)Nc3ccc(-c4cnco4)cc32)cc1", "note": "[GW276655X]", "fold change in fluorescence relative to zaprinast alone": 1.083}
{"smiles": "CS(=O)(=O)Nc1ccc(N/C=C2\\C(=O)Nc3ccccc32)cc1", "note": "[GW278681X]", "fold change in fluorescence relative to zaprinast alone": 1.254}
{"smiles": "Cc1cc(Cl)cc2c1NC(=O)C2=NNc1ccc(S(N)(=O)=O)cc1", "note": "[GW279320X]", "fold change in fluorescence relative to zaprinast alone": 1.035}
{"smiles": "NS(=O)(=O)c1ccc(N/N=C2\\C(=O)Nc3ccc(Cl)cc32)cc1", "note": "[GW280670X]", "fold change in fluorescence relative to zaprinast alone": 0.9881}
{"smiles": "Cn1cncc1-c1cc2c(Nc3ccc(OCc4ccccc4)cc3)ncnc2cn1", "note": "[GW281179X]", "fold change in fluorescence relative to zaprinast alone": 1.036}
{"smiles": "COc1cc2ncnc(Nc3ccc4c(cnn4Cc4ccccc4)c3)c2cc1OC", "note": "[GW282449A]", "fold change in fluorescence relative to zaprinast alone": 1.119}
{"smiles": "COc1cc2ncnc(Nc3ccc4nc(-c5ccccc5)[nH]c4c3)c2cc1OC", "note": "[GW282450A]", "fold change in fluorescence relative to zaprinast alone": 0.9024}
{"smiles": "Cc1cccc2c1NC(=O)/C2=N\\Nc1ccc(S(N)(=O)=O)cc1", "note": "[GW282536X]", "fold change in fluorescence relative to zaprinast alone": 1.189}
{"smiles": "c1ccc(COc2ccc(Nc3ncnc4ccc(-c5ccco5)cc34)cc2)cc1", "note": "[GW284372X]", "fold change in fluorescence relative to zaprinast alone": 0.7189}
{"smiles": "O=C1Nc2ccccc2/C1=C/Nc1ccc2[nH]c(=O)[nH]c2c1", "note": "[GW284408X]", "fold change in fluorescence relative to zaprinast alone": 0.9722}
{"smiles": "NS(=O)(=O)c1ccc(N/N=C2\\C(=O)Nc3ccc(C(=O)NCCCn4ccnc4)cc32)cc1", "note": "[GW290597X]", "fold change in fluorescence relative to zaprinast alone": 1.214}
{"smiles": "COc1ccc2[nH]c3c4[nH]c5ccc(OC)cc5c4c4c(c3c2c1)C(=O)NC4=O", "note": "[GW296115X]", "fold change in fluorescence relative to zaprinast alone": 0.5167}
{"smiles": "NS(=O)(=O)c1ccc(N/C=C2\\C(=O)Nc3ccc4ncsc4c32)cc1", "note": "[GW297361X]", "fold change in fluorescence relative to zaprinast alone": 1.167}
{"smiles": "NS(=O)(=O)c1ccc(N/N=C2\\C(=O)Nc3ccc(C(=O)NCCc4c[nH]cn4)cc32)cc1", "note": "[GW300660X]", "fold change in fluorescence relative to zaprinast alone": 1.243}
{"smiles": "O=C1Nc2ccccc2/C1=C/Nc1ccc(-n2cncn2)cc1", "note": "[GW301789X]", "fold change in fluorescence relative to zaprinast alone": 1.111}
{"smiles": "CN(C)c1cc2c(Nc3ccc4nc(Cc5ccccc5)[nH]c4c3)ncnc2cn1", "note": "[GW301888X]", "fold change in fluorescence relative to zaprinast alone": 1.125}
{"smiles": "NS(=O)(=O)c1ccc(N/N=C2\\C(=O)Nc3ccc4ncccc4c32)cc1", "note": "[GW305178X]", "fold change in fluorescence relative to zaprinast alone": 0.9853}
{"smiles": "Cn1cncc1-c1ccc2ncnc(Nc3ccc(OCc4ccccc4)cc3)c2c1", "note": "[GW320571X]", "fold change in fluorescence relative to zaprinast alone": 0.8423}
{"smiles": "C/C(Nc1ccc(S(N)(=O)=O)cc1)=C1/C(=O)Nc2ccccc21", "note": "[GW335962X]", "fold change in fluorescence relative to zaprinast alone": 1.108}
{"smiles": "CCn1cnc2c(N)ncnc21", "note": "[GW345098X]", "fold change in fluorescence relative to zaprinast alone": 1.056}
{"smiles": "NS(=O)(=O)c1ccc(N/N=C2\\C(=O)Nc3cccc(CCc4ccncc4)c32)cc1", "note": "[GW352430A]", "fold change in fluorescence relative to zaprinast alone": 1.031}
{"smiles": "O=C1Nc2ccc(C(=O)c3ccco3)cc2C1=Cc1cc(Cl)c(O)c(Cl)c1", "note": "[GW406108X]", "fold change in fluorescence relative to zaprinast alone": 1.311}
{"smiles": "COC(=O)c1cncc(/C=C/c2c(C)cc(O)cc2C)c1", "note": "[GW406731X]", "fold change in fluorescence relative to zaprinast alone": 0.8759}
{"smiles": "c1ccc(Oc2ccc(Nc3ccnc4ccc(-c5ccccn5)cc34)cc2)cc1", "note": "[GW407034X]", "fold change in fluorescence relative to zaprinast alone": 0.6551}
{"smiles": "COc1cc2ncnc(Nc3ccc(C)c(O)c3)c2cc1OC", "note": "[GW410563A]", "fold change in fluorescence relative to zaprinast alone": 1.297}
{"smiles": "CN(C)c1ccc2c(c1)/C(=C/Nc1ccc(S(N)(=O)=O)cc1)C(=O)N2", "note": "[GW416469X]", "fold change in fluorescence relative to zaprinast alone": 1.109}
{"smiles": "CC(C)COC(=O)c1ccc2c(c1)/C(=C/Nc1ccc(S(N)(=O)=O)cc1)C(=O)N2", "note": "[GW416981X]", "fold change in fluorescence relative to zaprinast alone": 1.146}
{"smiles": "Cc1cc(O)cc(C)c1/C=C/c1cncc(C(=O)N(C)C)c1", "note": "[GW427984X]", "fold change in fluorescence relative to zaprinast alone": 1.241}
{"smiles": "O=C1Nc2ccc(-c3cccnc3)cc2C1=Cc1cc(Br)c(O)c(Br)c1", "note": "[GW429374A]", "fold change in fluorescence relative to zaprinast alone": 1.179}
{"smiles": "CNC(=O)Oc1cc(C)c(/C=C/c2cncc(C(=O)NC)c2)c(C)c1", "note": "[GW432441X]", "fold change in fluorescence relative to zaprinast alone": 1.157}
{"smiles": "Fc1ccc(-c2nn3ccccc3c2-c2ccncc2)cc1", "note": "[GW434756X]", "fold change in fluorescence relative to zaprinast alone": 0.1696}
{"smiles": "Cc1cc(O)cc(C)c1/C=C/c1cncc(C(N)=O)c1", "note": "[GW435821X]", "fold change in fluorescence relative to zaprinast alone": 1.076}
{"smiles": "Cc1cc(O)cc(C)c1/C=C/c1cncc(C(=O)OC(C)(C)C)c1", "note": "[GW439255X]", "fold change in fluorescence relative to zaprinast alone": 1.014}
{"smiles": "COc1cc2nccc(Nc3ccc(OCc4ccc(NC(C)=O)cc4)cc3)c2cc1OC", "note": "[GW440135A]", "fold change in fluorescence relative to zaprinast alone": 1.118}
{"smiles": "c1ccc(-c2ccc3c(Nc4ccc5[nH]ncc5c4)ccnc3c2)nc1", "note": "[GW440137A]", "fold change in fluorescence relative to zaprinast alone": 1.678}
{"smiles": "c1ccc(-c2ccc3c(Nc4ccc5[nH]ccc5c4)ccnc3c2)nc1", "note": "[GW440138A]", "fold change in fluorescence relative to zaprinast alone": 1.081}
{"smiles": "Cc1ccc(O)cc1Nc1ccnc2cc(-c3ccccn3)ccc12", "note": "[GW440139B]", "fold change in fluorescence relative to zaprinast alone": 1.023}
